4 molecules from paper PMC13040083, “Single-molecule dynamics reveal ATP binding alone powers substrate translocation by an ABC transporter” (Nature Communications, 2026) can be followed below.

The subject of one assay is TmrA^EQB (TmrA^E523QB). The assay is described as follows: Single-molecule (smFRET) peptide translocation by slow-turnover TmrA^EQB in liposomes. The note with it: 10 µM valinomycin, K+ buffer, Mg-ATP 3 mM, peptide 200 µM, 45 °C 5 min; and control at 30 °C.
Assay [1] relates to TmrAB^WT. The assay is described as follows: LC-MS-based peptide transport assay. In kind it is biochemical, Thermus thermophilus. Conditions: Mg-ATP 3 mM, ATP regeneration system, 45 °C 45 min, n = 3 technical replicates.
Method: For single-molecule experiments, a protein-to-lipid ratio (w/w) of 1:10,000 and an OppA-to-liposome ratio of 0.2 molecules per liposome were used. For ensemble transport assays, a protein-to-lipid ratio (w/w) of 1:20 was applied. Extruded LUVs were destabilized by incubation with 0.3% (v/v) Triton X-100 (TX-100) for 30 min. TmrAB and OppA were then added to the detergent-destabilized liposomes and incubated for 30 min at 8 °C under gentle rotation. Detergent removal was performed gradually using sequential additions of polystyrene Bio-Beads SM-2 (Bio-Rad): two incubations at 40 mg/mL (1 h and overnight), followed by two incubations at 80 mg/mL (1 h each). Finally, proteoliposomes were harvested by ultracentrifugation (100,000 × g, 30 min, 4 °C) and resuspended in the appropriate buffer.
Reactions were stopped with ice-cold liposome buffer containing 10 mM EDTA. Samples were ultracentrifuged (450,000 × g, 30 min, 4 °C), and pellets were resuspended in 200 µL of 100 mM Na2CO3 (pH 11.5), followed by a second ultracentrifugation under the same conditions. […] A final ultracentrifugation (450,000 × g, 1.5 h, 4 °C) was performed before LC-MS analysis using a Waters BioAccord system (UNIFY 3.1.0). […] Quantification was based on total ion chromatogram peak areas at the peptide-specific retention times.
Assay [2] concerns TmrAB^WT. The assay is described as follows: Filter plate-based peptide transport assay. In kind it is biochemical, Thermus thermophilus. Conditions: C4F 10 µM.
Assay [3] concerns TmrAB^WT. The assay is described as follows: Single-liposome transport monitored by flow cytometry. Format: biochemical, Thermus thermophilus. Conditions: flow cytometry single-liposome assay.

Method for TmrA^EQB (TmrA^E523QB): For single-molecule experiments, a protein-to-lipid ratio (w/w) of 1:10,000 and an OppA-to-liposome ratio of 0.2 molecules per liposome were used. For ensemble transport assays, a protein-to-lipid ratio (w/w) of 1:20 was applied. Extruded LUVs were destabilized by incubation with 0.3% (v/v) Triton X-100 (TX-100) for 30 min. TmrAB and OppA were then added to the detergent-destabilized liposomes and incubated for 30 min at 8 °C under gentle rotation. Detergent removal was performed gradually using sequential additions of polystyrene Bio-Beads SM-2 (Bio-Rad): two incubations at 40 mg/mL (1 h and overnight), followed by two incubations at 80 mg/mL (1 h each). […]
Single-molecule FRET experiments were conducted using a flow chamber system to immobilize liposomes and transporters in an uptake-competent orientation. […] Laser powers were set to 0.8 mW/cm^2 (532 nm excitation) and 0.9 mW/cm^2 (640 nm excitation), with data recorded in 1-min intervals.
Single-molecule FRET (smFRET) measurements were performed using ALEX, allowing the assignment of detected photons based on both excitation and emission wavelength. […] From these signals, FRET efficiency (E) and stoichiometry (S) were calculated and FRET traces extracted using NanoImager software (ONI Nanoimager Development Build) and analyzed with deepFRET[56]. […] Dynamic smFRET traces were further analyzed via HMM by deepFRET. […]

Regarding `CC(C)[C@@H]1NC(=O)[C@H](C)OC(=O)[C@@H](C(C)C)NC(=O)[C@@H](C(C)C)OC(=O)[C@H](C(C)C)NC(=O)[C@H](C)OC(=O)[C@@H](C(C)C)NC(=O)[C@@H](C(C)C)OC(=O)[C@H](C(C)C)NC(=O)[C@H](C)OC(=O)[C@@H](C(C)C)NC(=O)[C@@H](C(C)C)OC1=O` [valinomycin], the “effect of dissipating membrane potential on translocation” value in the assay on TmrA^EQB (TmrA^E523QB) is reported as “excluded effects from a transmembrane potential”. On to GIINTLEEL [9mer peptide], for which the “ATP-dependent transport, in words” value with TmrAB^WT [1] was “signiﬁcant ATP-dependent transport”. Consider “RRYC(Fluorescein)KSTEL [C4F, RRYC^FLKSTEL, fluorescein-labeled peptide RRYC^FLKSTEL]”, for which the “peptide transport, in words” value is “no transport above ADP-EDTA (3 mM) background” in the assay on TmrAB^WT [2] (ATP-EDTA 3 mM) and “robust transport” in the assay with TmrAB^WT [2] (Mg-ATP 3 mM). In addition, in the assay on TmrAB^WT [1], the “ATP-dependent transport, in words” value is “signiﬁcant ATP-dependent transport”.

B1: Nb9F10: conformation-independent nanobody tethered via PEG11-biotin (antibody, V domains shown)
VH: QLQLVESGGGLVQPGDSLRLSCAVSGSALDYNAIGWFRQAPGKEREGVACISKITGNTAYADCVKGRFTISRDNAKNTVHLQMNSLKPEDTAVYYCATVTAVLLPGRCVPGKYWGQGTPVTVSS
As to B1, in the assay with TmrAB^WT [3], the “effect of nanobody binding on TmrAB transport activity” value is “did not alter transport activity”.
